Values of other authors as cited in patent US10786520B2, “Aminoglycoside derivatives and uses thereof in treating genetic disorders” (Eloxx Pharmaceuticals Ltd., priority 2015, dated 2020).

Tested on: human fibroblast cells

Structure (SMILES): CN[C@@H]1[C@@H](O)[C@@H](O[C@@H]2[C@@H](O)[C@H](O[C@H]3O[C@H]([C@@H](C)O)[C@@H](O)[C@H](O)[C@H]3N)[C@@H](N)C[C@H]2N)OC[C@]1(C)O [Compound G-418, G-418]
- LD50 against human fibroblast cells: 0.04 mg/mL
